Measured values as given in ChEMBL document CHEMBL1201862, “PubChem BioAssay data set” (2004).
Calls of active or inactive are those of the source.

Tests used:
[1] = Luminescence Cell-Based Dose Confirmation HTS to Identify Activators of 5'UTR Stem-Loop Driven Alpha-Synuclein mRNA Translation in H4 Neuroglioblastoma Cells. [Related pubchem assays: 1829 (Project Summary), 1814 (Primary HTS)]; assay type: functional
[2] = tested on: H4; assay: Luminescence Cell-Based Dose Response HTS to Identify Activators of 5'UTR Stem-Loop Driven Prion Protein mRNA Translation in H4 Neuroglioblastoma Cells. [Related pubchem assays: 1829 (Project Summary), 1814 (Primary HTS)]; assay type: functional; conditions: Homo sapiens
[3] = Luminescence Cell-Based Dose Response HTS to Identify Activators of Luciferase Translation or Activity in H4 […] Cells. [Related pubchem assays: 1829 (Project Summary), 1814 (Primary HTS)]; assay type: functional
[4] = molecular target: FAD-linked sulfhydryl oxidase ALR (Homo sapiens, UniProt P55789); assay: inhibitors of human ALR sulfhydryl oxidase, dose response, biochemical, H2O2 detection, luminescence, cherry-pick (AID 493248)
[5] = inhibitors of SNCA 5'UTR-driven reporter translation, confirmation, H4 neuroglioma cells, luminescence (AID 1988); assay type: functional, cell-based
[6] = Luminescence Cell-Based Dose Response HTS to Identify Inhibitors of 5'UTR Stem-Loop Driven Prion Protein mRNA Translation in H4 Neuroglioblastoma Cells. [Related pubchem assays: 1827 (Project Summary), 1813 (Primary HTS)]; assay type: functional
[7] = inhibitors of firefly luciferase expression or activity, dose response, H4 neuroglioma cells, luminescence (AID 1990); assay type: functional, cell-based
[8] = Luminescence Cell-Based Dose Retest to Confirm Inhibitors of Cancer Stem Cells. [Related pubchem assays (depositor defined):AID2717, AID2721]; assay type: functional; conditions: Homo sapiens
[9] = molecular target: T1, Heat shock factor protein 1 (Mus musculus, UniProt P38532); assay: HSF1 potentiators in luciferase reporter cells, confirmation, cell-based, NIH3T3, luminescence, dose retest (AID 435004); assay type: functional;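 also: stress induced by proteasome inhibitor MG132 added 30 min after compound; luciferase reporter driven by HSF1 response element in NIH3T3 cells; actives raise luminescence as potentiators of the MG132 stress response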
T1 sequence (P38532 whole entry): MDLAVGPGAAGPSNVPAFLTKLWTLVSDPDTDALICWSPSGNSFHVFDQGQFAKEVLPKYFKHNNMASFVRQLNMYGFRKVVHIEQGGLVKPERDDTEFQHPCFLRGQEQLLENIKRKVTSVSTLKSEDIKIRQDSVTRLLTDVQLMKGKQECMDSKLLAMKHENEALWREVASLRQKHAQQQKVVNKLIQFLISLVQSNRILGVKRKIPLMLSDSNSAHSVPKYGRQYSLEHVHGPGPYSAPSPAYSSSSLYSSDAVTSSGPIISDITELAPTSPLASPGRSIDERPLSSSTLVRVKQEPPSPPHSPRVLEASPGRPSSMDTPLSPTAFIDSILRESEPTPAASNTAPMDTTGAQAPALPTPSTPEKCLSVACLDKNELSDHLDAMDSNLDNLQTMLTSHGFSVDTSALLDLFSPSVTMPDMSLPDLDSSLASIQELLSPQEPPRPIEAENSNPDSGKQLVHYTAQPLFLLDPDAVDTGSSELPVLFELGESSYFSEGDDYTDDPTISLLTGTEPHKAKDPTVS

[10] = tested on: BJ; assay: cells; assay type: functional, cell-based; conditions: Homo sapiens
[11] = tested on: BJ; assay: cytotoxicity toward BJ-TERT-LT-ST fibroblasts, dose response, cell-based, RAS-independent, luminescence (AID 1935); assay type: functional; conditions: Homo sapiens;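 also: BJ fibroblasts immortalized with TERT plus LT and ST oncogenes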
[12] = cytotoxicity toward DRD oncogenic fibroblasts, dose response, cell-based, non-viral oncogenic, luminescence (AID 1934); assay type: functional; conditions: Homo sapiens
[13] = tested on: BJ; assay: cytotoxicity toward BJ-TERT fibroblasts, dose response, cell-based, RAS-independent, luminescence (AID 1933); assay type: functional; conditions: Homo sapiens
[14] = molecular target: Cytochrome P450 2C19 (Homo sapiens, UniProt P33261); assay: Cytochrome panel assay with activity outcomes. Panel member name: p450-cyp2c19 Compounds with AC50 equal or less than 10 uM are considered active; assay type: functional; conditions: read-out: AC50
[15] = tested on: INS1; assay: beta cell apoptosis inhibitors, cytokine rescue, dose response, luminescence, retest (AID 449756); assay type: functional, cell-based; conditions: Rattus norvegicus;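 also: cell death triggered by IL-1 beta plus TNF-alpha plus IFN-gamma mixture; protective hits raise ATP signal compared with cytokine alone wells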
[16] = tested on: Streptococcus; assay: Group A Streptococcus viability loss, dose response, counter-screen for streptokinase expression inhibitor project, luminescence, BacTiterGlo (AID 1915); assay type: functional, organism-based;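 also: potency for reduction of bacterial viability or growth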
[17] = molecular target: Paired box protein Pax-8 (Homo sapiens, UniProt Q06710); assay: inhibitors of PAX8-driven TPO luciferase reporter, dose response, RMG-I cells, cherry-pick (AID 687027); assay type: functional, cell-based;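 also: luciferase reporter driven by Pax8 target thyroperoxidase promoter measured by SteadyGlo luminescence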
[18] = tested on: Streptococcus sp. 'group A'; assay: growth inhibition of control SK(-) GAS strain, dose response, counter-screen for streptokinase expression inhibitor project, luminescence, kanamycin, BacTiterGlo, confirmation (AID 1900); assay type: functional, organism-based
[19] = inhibitors of intracellular T. cruzi replication, confirmation, NIH3T3 host cells, beta-gal luminescence (AID 2044); assay type: functional, cell-based;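 also: intracellular parasites grown in NIH/3T3 mouse fibroblasts as host cells; luminescent beta-galactosidase reporter signal from transgenic T. cruzi replicating inside host cells; inhibitors lower the luminescence signal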
[20] = molecular target: Cytochrome P450 2D6 (Homo sapiens, UniProt P10635);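 also: CYP2D6 member of a cytochrome P450 panel assay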
[21] = cytotoxicity toward NIH3T3 fibroblasts, dose response, counter-screen, cell-based, ATP luminescence, mouse fibroblasts (AID 2010); assay type: functional;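 also: cells exposed to compound for about 90 hours before reading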

FAD-linked sulfhydryl oxidase ALR, sequence (P55789 whole entry): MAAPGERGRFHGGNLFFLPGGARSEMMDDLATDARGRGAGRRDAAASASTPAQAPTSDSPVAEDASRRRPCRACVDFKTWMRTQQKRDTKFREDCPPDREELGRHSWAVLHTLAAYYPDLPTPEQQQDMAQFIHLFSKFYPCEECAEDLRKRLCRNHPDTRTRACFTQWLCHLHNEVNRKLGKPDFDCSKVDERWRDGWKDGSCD
Cytochrome P450 2C19, sequence (P33261 whole entry): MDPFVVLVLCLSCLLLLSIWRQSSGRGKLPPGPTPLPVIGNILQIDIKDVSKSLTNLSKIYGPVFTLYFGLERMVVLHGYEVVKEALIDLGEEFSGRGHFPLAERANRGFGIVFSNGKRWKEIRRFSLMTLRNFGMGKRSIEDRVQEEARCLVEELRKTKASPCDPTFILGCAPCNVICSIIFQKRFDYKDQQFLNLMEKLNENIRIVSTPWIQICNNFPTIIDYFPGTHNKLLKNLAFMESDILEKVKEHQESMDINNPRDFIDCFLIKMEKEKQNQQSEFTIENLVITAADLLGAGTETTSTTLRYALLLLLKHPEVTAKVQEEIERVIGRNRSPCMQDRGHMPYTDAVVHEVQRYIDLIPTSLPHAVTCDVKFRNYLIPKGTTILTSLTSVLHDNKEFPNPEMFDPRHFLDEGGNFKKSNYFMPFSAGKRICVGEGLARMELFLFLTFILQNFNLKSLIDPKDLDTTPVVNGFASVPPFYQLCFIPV
Paired box protein Pax-8, sequence (Q06710 whole entry): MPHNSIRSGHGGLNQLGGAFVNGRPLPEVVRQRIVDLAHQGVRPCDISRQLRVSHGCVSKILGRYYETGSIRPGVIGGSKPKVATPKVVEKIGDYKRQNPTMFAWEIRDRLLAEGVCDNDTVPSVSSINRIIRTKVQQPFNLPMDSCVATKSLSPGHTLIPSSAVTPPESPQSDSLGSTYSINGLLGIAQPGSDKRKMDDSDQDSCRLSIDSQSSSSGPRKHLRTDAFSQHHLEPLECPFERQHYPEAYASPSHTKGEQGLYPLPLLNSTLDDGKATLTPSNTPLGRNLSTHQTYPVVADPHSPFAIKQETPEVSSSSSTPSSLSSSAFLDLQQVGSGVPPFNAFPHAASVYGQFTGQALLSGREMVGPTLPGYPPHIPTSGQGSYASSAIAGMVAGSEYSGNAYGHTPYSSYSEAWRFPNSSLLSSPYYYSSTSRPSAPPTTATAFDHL
Cytochrome P450 2D6, sequence (P10635 whole entry): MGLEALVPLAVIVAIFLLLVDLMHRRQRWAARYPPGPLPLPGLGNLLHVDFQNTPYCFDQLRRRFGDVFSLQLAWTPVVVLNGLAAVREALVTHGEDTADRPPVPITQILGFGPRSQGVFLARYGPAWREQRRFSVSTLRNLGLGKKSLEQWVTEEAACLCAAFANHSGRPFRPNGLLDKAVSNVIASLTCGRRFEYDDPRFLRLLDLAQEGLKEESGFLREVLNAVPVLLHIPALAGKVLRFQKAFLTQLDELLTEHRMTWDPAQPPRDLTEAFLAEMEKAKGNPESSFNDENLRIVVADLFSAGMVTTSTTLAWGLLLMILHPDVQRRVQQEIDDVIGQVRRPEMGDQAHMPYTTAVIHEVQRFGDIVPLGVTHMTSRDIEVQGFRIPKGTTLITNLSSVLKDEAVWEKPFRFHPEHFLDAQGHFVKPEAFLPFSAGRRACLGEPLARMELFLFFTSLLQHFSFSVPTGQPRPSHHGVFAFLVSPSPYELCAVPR

CC1Oc2ccccc2C=C1/C=C1/SC(N2CCOCC2)=NC1=O (centres undefined)
EC50 [1]: 7.43 µM (active) | EC50 [2]: 10.9 µM (active) | EC50 [3]: 37.3 µM (active)

Nc1ccccc1Sc1c[nH]c2ccccc12
AC50 [4]: 24.5 µM (active)

Cc1cc(C(=O)C(=O)O)c(C)n1-c1ccc(Cl)c(Cl)c1
AC50 [4]: 1.39 µM (active)

CC(Oc1cccc(Cl)c1)C(=O)Nc1ccc([N+](=O)[O-])cn1 (centres undefined)
EC50 [5]: 59.8 µM (active) | EC50 [6]: > 120 µM (not active) | EC50 [7]: 21.4 µM (active)

CCC(C)n1ncn(-c2ccc(N3CCN(c4ccc(O)cc4)CC3)cc2)c1=O (centres undefined)
AC50 [8]: 1.2 µM (active) | EC50 [6]: 19.7 µM (active) | EC50 [7]: > 120 µM (not active)

CC(Sc1nnc2ccccn12)C(N)=O (centres undefined)
EC50 [9]: > 260 µM (inactive)

O=C(CC1Sc2ccccc2NC1=O)c1ccc(Br)cc1 (centres undefined)
EC50 [1]: 5.6 µM (active) | EC50 [2]: 36.6 µM (active) | EC50 [3]: 7.15 µM (active)

Cc1ccc(S(=O)(=O)NC(=O)Nc2ccc(C)cn2)cc1
EC50 [9]: > 260 µM (inactive)

Cc1sc2c(c1C)CN(CCN1CCOCC1)CN2C(=O)c1ccccc1
EC50 [1]: 19.9 µM (active) | EC50 [2]: > 120 µM (not active) | EC50 [3]: 13.7 µM (active)

O=C(c1cccc(F)c1)N1CCN=C1SCc1cccnc1
AC50 [4]: 0.123 µM (active)

Cc1cc(NC(=O)c2cccc(Br)c2)[nH]n1
EC50 [1]: 2.47 µM (active) | EC50 [3]: 54.5 µM (active)

CC(Oc1ccc(F)cc1Br)c1nc(O)c2ccccc2n1 (centres undefined)
EC50 [9]: 74.4 µM (active)

CC1(C)CN(c2cccc(Br)c2)C1=O
EC50 [9]: > 260 µM (inactive)

CC(=O)Nc1ccccc1OC(C)C(=O)N1CC(C)CC(C)C1 (centres undefined)
EC50 [9]: > 260 µM (inactive)

Cc1ccc(C(=O)c2cc([N+](=O)[O-])ccc2N2CC(C)OC(C)C2)cc1 (centres undefined)
EC50 [10]: 31.6 µM (active) | EC50 [11]: 16.7 µM (active) | EC50 [12]: 12.5 µM (active) | EC50 [13]: 13.8 µM (active)

N/C(=C\C(=O)c1cc(Cl)ccc1O)C(Cl)(Cl)Cl
EC50 [10]: 5.09 µM (active) | EC50 [11]: 7.09 µM (active) | EC50 [12]: 5.12 µM (active) | EC50 [13]: 3.92 µM (active)

Cc1ccc2c(c1)C(N1CCCC1=O)CC(c1ccco1)N2 (centres undefined)
EC50 [1]: 14.6 µM (active) | EC50 [2]: > 120 µM (not active) | EC50 [3]: 16.1 µM (active)

CCC1CCCCN1C(=O)COC(=O)c1cc2ccccc2cc1O (centres undefined)
EC50 [9]: > 260 µM (inactive)

Cc1ccccc1NCCC(=O)Nc1ccc(Cl)cc1
AC50 [4]: 4.88 µM (active)

O=C(c1ccccc1F)N1CCN=C1SCc1cccnc1
AC50 [4]: 0.552 µM (active)

CN(C)S(=O)(=O)Oc1ccsc1C(=O)Nc1ccccc1Cl
EC50 [5]: 15.7 µM (active) | EC50 [6]: > 120 µM (not active) | EC50 [7]: > 120 µM (not active)

COc1ccccc1N1CCN(C(=O)Cn2nc(C(F)(F)F)c3c2CCC3)CC1
EC50 [5]: > 120 µM (not active) | EC50 [6]: > 120 µM (not active) | EC50 [7]: > 120 µM (not active)

O=C(COC(=O)/C=C/c1ccc(Br)o1)NCCCN1CCCC1=O
EC50 [9]: > 260 µM (inactive)

O=C(CC1C=Cc2ccccc2N1C(=O)c1ccccc1)c1ccccc1 (centres undefined)
EC50 [9]: > 260 µM (inactive)

c1ccc(CCc2nc(-c3ccccc3)no2)cc1
EC50 [1]: 56.8 µM (active) | AC50 [14]: 0.501 µM (inconclusive) | EC50 [2]: 6.54 µM (active) | EC50 [3]: 51.8 µM (active)

CCCCN1C(=O)/C(=C/c2c[nH]nc2-c2ccccc2)SC1=S
EC50 [9]: > 260 µM (inactive)

COc1ccc(S(=O)(=O)Cc2ccc(C(=O)N3CCN(c4cccc(C)c4C)CC3)o2)cc1
EC50 [10]: > 150 µM (not active) | EC50 [11]: > 75 µM (inconclusive) | EC50 [12]: 20.4 µM (active) | EC50 [13]: > 150 µM (not active)

O=C(NCc1csc(-c2ccccc2)n1)c1cc(F)cc2c1OCOC2
EC50 [1]: 14.9 µM (active) | EC50 [2]: 15.5 µM (active) | EC50 [3]: 13.1 µM (active)

Cc1ccc(NCC(=O)N=Nc2c(O)[nH]c3ccc([N+](=O)[O-])cc23)cc1
EC50 [1]: 24.6 µM (active) | EC50 [2]: 0.303 µM (active) | EC50 [3]: 0.255 µM (active)

CCO/C(O)=C1\C(C)=Nc2sc(C(=O)c3ccc(C)cc3)c(N)c2C1c1ccc(C(=O)OC)cc1 (centres undefined)
EC50 [5]: > 120 µM (not active) | EC50 [6]: > 120 µM (not active) | EC50 [7]: > 120 µM (not active)

CCOC(=O)C1(Cc2cccc(OC)c2)CCCN(C(=O)CCc2cccnc2)C1 (centres undefined)
EC50 [1]: 15.2 µM (active) | EC50 [2]: > 120 µM (not active) | EC50 [3]: 12.6 µM (active)

Cc1ccc(C(=O)O/N=C(\N)Cc2cccc3ccccc23)cc1
EC50 [9]: > 260 µM (inactive)

Cc1cccc(C(=O)NNC(=O)c2ccc(Cl)cc2)c1O
EC50 [1]: 23.3 µM (active) | EC50 [2]: 98.9 µM (active) | EC50 [3]: 7.11 µM (active)

COc1ccc(F)cc1S(=O)(=O)Nc1ccc2c(c1)OCO2
EC50 [9]: > 260 µM (inactive)

COc1cnn(-c2cc(Oc3ccc(C)cc3)ncn2)c(=O)c1Cl
EC50 [9]: > 260 µM (inactive)

CC(=O)Nc1ccc(NC2CCCCC2NS(=O)(=O)c2ccccc2)cc1 (centres undefined)
AC50 [4]: 0.736 µM (active)

Cc1nc2ccccc2c(=O)n1CCc1ccc(O)cc1
AC50 [4]: 3.66 µM (active)

O=C(COc1ccccc1-c1ccccc1)N/N=C/c1ccc2ccccc2c1
AC50 [15]: 9.14 µM (active) | EC50 [10]: 0.568 µM (active) | EC50 [16]: 2.41 µM (active) | EC50 [11]: 0.472 µM (active) | AC50 [8]: 0.258 µM (active) | EC50 [12]: 0.475 µM (active) | EC50 [13]: 0.364 µM (active) | AC50 [17]: 2.1 µM (active) | EC50 [18]: 4.87 µM (active)

C/C(=N\OC(=O)NC1CCCCC1)c1sc(-c2ccccc2)nc1C
EC50 [1]: 22 µM (active) | EC50 [19]: 2.05 µM (active) | EC50 [2]: > 120 µM (inconclusive) | EC50 [3]: 0.673 µM (active) | AC50 [20]: 28.2 µM (inconclusive) | EC50 [21]: > 60 µM (not active)

COc1cccc2cc(/C(=N/O)c3ccc(Br)cc3)oc12
EC50 [5]: 12.8 µM (active) | EC50 [6]: 18.6 µM (active) | EC50 [7]: 14.6 µM (active)
